Legend:
[1] = test system: iTreg induction (CD4+FoxP3+ cells); test: iTreg induction from CD4+FoxP3- cells with TGF-β (flow cytometry); format: cell-based; conditions: 72 hrs, frequency of CD4+FoxP3+ cells
Method: FACS-sorted CD4+FoxP3− cells were plated on anti-CD3-coated plates with soluble IL2 and ant-CD28 with TGF-β (induction) Cell were induced for iTregs with JJ64-B (FIG. 6A) without inhibitor (Induction-IND)) or for 72 hrs. Cells were harvested and the frequency of CD4+FoxP3+ cells was measured by flow cytometry.
FACS-sorted CD4+FoxP3− cells were plated on anti-CD3-coated plates with soluble IL2 and ant-CD28 with TGF-β (induction) Cell were induced for iTregs with JJ64-C (JJ64 modified drug C or Formula 18) or without inhibitor (Induction-IND)) or for 72 hrs. Cells were harvested and the frequency of CD4+FoxP3+ cells was measured by flow cytometry.
FACS-sorted CD4+FoxP3− cells were plated on anti-CD3-coated plates with soluble IL2 and ant-CD28 with TGF-β (induction) Cell were induced for iTregs with JJ64-D (JJ64 modified drug D or FIG. 9A) or without inhibitor (Induction-IND)) or for 72 hrs. Cells were harvested and the frequency of CD4+FoxP3+ cells was measured by flow cytometry.

[2] = test system: TC-1 tumor; test: TC-1 tumor growth and survival, alone or with vaccine; format: in vivo, mouse; conditions: high dose as monotherapy, lower dose combined with vaccine
Method: C57BL/6 mice (n=5/group) were injected s.c. in the right flank with 7×10^4 TC-1 cells. Mice from appropriate groups were injected weekly with vaccine (s.c.) or DMSO 5% as a control. Mice were also treated with vaccine (weekly) along with either 10 mg/kg or 20 mg/kg of JJ64-E injected (i.p.) every day starting on day 6 after tumor implantation throughout the experiment.
FIGS. 5B and 5C are bar diagrams showing average tumor volumes of mice for each group. FIG. 5D is a Kaplan-Meier plot of the overall survival. Statistical significance was determined by Log-rank (Mantel-Cox) test.
(§1) Statistical significance was determined by one-way ANOVA with Tukey's multiple comparison test (*, p<0.05; **, p<0.01; ***, p<0.001).
C57BL/6 mice (n=5/group) were injected s.c. in the right flank with 7×10^4 TC-1 cells. Mice from appropriate groups were injected weekly with vaccine (s.c.) or DMSO 5% as a control. Mice were also treated with vaccine (weekly) along with either 10 mg/kg or 20 mg/kg of JJ64-C(or FIG. 7A or Formula 18) injected (i.p.) every other day starting on day 6 after tumor implantation throughout the experiment.
FIGS. 7C and 7D are bar diagrams representing average tumor volumes of mice for each group. FIG. 7E is a Kaplan-Meier plot of the overall survival. Statistical significance was determined by Log-rank (Mantel-Cox) test.

[3] = test system: Tregs (CD4+Foxp3+); test: TC-1 tumor model: percentage of Tregs by flow cytometry; format: in vivo, mouse; conditions: 5 mg/kg or 10 mg/kg i.p. every day from day 10, analysed day 15
Method: WT C57BL/6J mice (n=3/group) were injected s.c. in the right flank with 7×10^4 TC-1 cells. Mice from appropriate groups were treated with either 5 mg/kg or 10 mg/kg of JJ64-E injected (i.p.) every day starting on day 10 after tumor implantation throughout the experiment. All groups were euthanized on day 15 of TC-1 implantation. The percentage of Tregs (CD4+Foxp3+) was analyzed by flow cytometry.
as §1

[4] = biological target: T1, Akt1 (Mus musculus, UniProt P31750); test: Immunoblot of pAkt1 in activated nTregs; format: cell-based; conditions: 72 hrs
T1 construct: endogenous in cells; host or cells: primary mouse nTregs (C57BL/6J foxp3-GFP)
T1 sequence (P31750 whole entry): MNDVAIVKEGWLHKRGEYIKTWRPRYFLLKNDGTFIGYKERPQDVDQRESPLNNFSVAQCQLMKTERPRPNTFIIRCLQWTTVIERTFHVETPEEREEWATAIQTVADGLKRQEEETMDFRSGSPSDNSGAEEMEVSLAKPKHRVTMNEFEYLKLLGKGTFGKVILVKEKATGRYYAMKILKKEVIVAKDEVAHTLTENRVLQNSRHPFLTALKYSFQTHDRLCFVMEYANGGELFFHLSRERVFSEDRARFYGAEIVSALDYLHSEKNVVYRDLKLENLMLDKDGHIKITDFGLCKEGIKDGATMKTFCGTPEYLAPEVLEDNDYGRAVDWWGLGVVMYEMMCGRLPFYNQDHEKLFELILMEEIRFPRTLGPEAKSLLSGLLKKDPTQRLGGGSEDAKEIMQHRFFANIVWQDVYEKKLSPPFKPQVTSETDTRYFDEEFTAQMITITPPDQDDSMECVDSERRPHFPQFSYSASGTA
Method: (§2) FACS-sorted natural regulatory T cells (nTregs), from WT C57BL/6J (foxp3-GFP) mice were plated on anti-CD3-coated plates and cultured in activation media (IL2 and anti-CD28) without inhibitors (Stimulated) and with different concentrations of inhibitor 4-[(6-nitroquinolin-4-yl)amino]-N-[4-(pyridin-4-ylamino)phenyl]benzamide (also referred to as JJ64-E) for 72 hrs. For negative control (Non-stimulated-NS) cells were left in media containing IL-2 for 72 hrs. nTreg cell lysates prepared on day 3 (72 hrs) of treatment were separated by SDS-PAGE and immunoblotted with specific antibodies (pAkt1) or pAkt3; actin was used as loading control.

[5] = biological target: T2, Akt3 (Mus musculus, UniProt Q9WUA6); test: Immunoblot of pAkt3 in activated nTregs; format: cell-based; conditions: 72 hrs
T2 construct: nTreg cell lysates prepared on day 3 (72 hrs) of treatment were separated by SDS-PAGE and immunoblotted; endogenous in cells; host or cells: primary mouse nTregs (C57BL/6J foxp3-GFP)
T2 sequence (Q9WUA6 whole entry): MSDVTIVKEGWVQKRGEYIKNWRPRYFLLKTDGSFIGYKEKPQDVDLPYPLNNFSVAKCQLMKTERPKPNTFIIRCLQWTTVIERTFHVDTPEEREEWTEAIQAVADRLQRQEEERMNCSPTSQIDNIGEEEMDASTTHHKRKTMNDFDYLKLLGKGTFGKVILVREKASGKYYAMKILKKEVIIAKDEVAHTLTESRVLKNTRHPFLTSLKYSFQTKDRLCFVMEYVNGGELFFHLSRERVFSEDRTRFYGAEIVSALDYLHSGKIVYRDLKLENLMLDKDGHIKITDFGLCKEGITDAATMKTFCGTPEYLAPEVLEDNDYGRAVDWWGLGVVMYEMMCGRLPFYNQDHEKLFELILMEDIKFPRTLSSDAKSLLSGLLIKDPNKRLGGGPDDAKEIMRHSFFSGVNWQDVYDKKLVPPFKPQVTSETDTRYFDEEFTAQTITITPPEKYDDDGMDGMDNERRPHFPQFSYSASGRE
Method: as §2

[6] = test system: nTregs; test: Proliferation (VCT, flow cytometry) of activated nTregs; format: cell-based, mouse; conditions: 72 hrs, anti-CD3, IL2 and anti-CD28
Method: (§3) FACS-sorted nTregs, CD4+ and CD8+ T cells from C57BL/6J(foxp3-GFP) were plated on anti-CD3-coated plates and cultured in activation media (IL2 and anti-CD28) without inhibitors (Stimulated) and with inhibitors (JJ64-E) for 72 hrs. For negative control (Non-stimulated-NS) cells were left in media containing IL-2 for 72 hrs. After 72 hrs Proliferation (level of VCT) in live gated cells was measured by flow cytometry.

[7] = test system: CD8 and other (FoxP3neg) CD4 T cells; test: TC-1 tumor model: percentage of CD4 and CD8 T cells by flow cytometry; format: in vivo, mouse; conditions: 5 mg/kg or 10 mg/kg i.p. every day from day 10, analysed day 15
Method: WT C57BL/6 4-6 weeks old female mice (n=5/group) were injected s.c. in the right flank with 7×10^4 TC-1 cells. Mice from appropriate groups were treated with either 5 mg/kg or 10 mg/kg of JJ64-E injected (i.p.) everyday starting on day 10 after tumor implantation throughout the experiment. All groups were euthanized on day 15 of TC-1 implantation. The percentage of CD4 and CD8 were analyzed in splenic CD4+ cells by flow cytometry.

[8] = test system: CD4+ and CD8+ T cells; test: Proliferation (VCT, flow cytometry) of activated CD4+ and CD8+ T cells; format: cell-based, mouse; conditions: 72 hrs, anti-CD3, IL2 and anti-CD28
Method: as §3

[9] = JJ64-C i.p. every other day from day 6
[10] = JJ64-E i.p. every day from day 6

SMILES | iTreg induction [1] | TC-1 tumor growth [2, 9] | survival of TC-1 tumor mice [2, 9] | Tregs in vivo in TC-1 tumor model [3] | Akt1 phosphorylation in Tregs [4] | Akt3 phosphorylation in Tregs [5] | Treg proliferation [6] | CD8 and other (FoxP3neg) CD4 T cells in TC-1 tumor model [7] | TC-1 tumor growth [2, 10] | survival of TC-1 tumor mice [2, 10] | proliferation of CD8 and other CD4 T cells [8]
O=C(Nc1cccc(Nc2ccncc2)c1)c1cccc(Nc2ccnc3ccc(F)cc23)c1 [Compound 18] | inhibits | inhibits | prolongs | – | – | – | – | – | – | – | –
O=C(Nc1ccc(Nc2ccncc2)cc1)c1ccc(Nc2ccnc3ccc([N+](=O)[O-])cc23)cc1 [Compound 1, 4-[(6-nitroquinolin-4-yl)amino]-N-[4-(pyridin-4-ylamino)phenyl]benzamide] | – | – | – | decreases | not | inhibits | selectively inhibits | does not affect | inhibits | prolongs | sparing
